Here are results for one compound from patent US20210322443A1 (MAPREG, priority 2015, published 2021).

The target of test [1] is Muscarinic (Cholinergic) M4 (Homo sapiens, UniProt P08173). In words: CNS receptor binding assay. The following applies: [3H] 4-DAMP, Human recombinant (CHO cells), read-out: % Inhibition of control specific binding.
Test [2] deals with Oppioid δ2 (Homo sapiens, UniProt P41143). Nature of the test: CNS receptor binding assay. The following applies: [3H] DADLE, Human recombinant (CHO cells), read-out: % Inhibition of control specific binding.
Test [3] has as its target MAP2 (Homo sapiens, UniProt P11137). In words: Binding by displacement of PREG-3H.
Test [4] has as its system NMDA PCP site. In words: CNS receptor binding assay. The following applies: 10 μM; [3H] TCP; rat cerebral cortex.
The target of test [5] is Serotoninergic 5-HT1A (Homo sapiens, UniProt P08908). In words: CNS receptor binding assay. The following applies: read-out: % Inhibition of control specific binding.
Serotoninergic 5-HT1A, sequence (P08908 whole entry): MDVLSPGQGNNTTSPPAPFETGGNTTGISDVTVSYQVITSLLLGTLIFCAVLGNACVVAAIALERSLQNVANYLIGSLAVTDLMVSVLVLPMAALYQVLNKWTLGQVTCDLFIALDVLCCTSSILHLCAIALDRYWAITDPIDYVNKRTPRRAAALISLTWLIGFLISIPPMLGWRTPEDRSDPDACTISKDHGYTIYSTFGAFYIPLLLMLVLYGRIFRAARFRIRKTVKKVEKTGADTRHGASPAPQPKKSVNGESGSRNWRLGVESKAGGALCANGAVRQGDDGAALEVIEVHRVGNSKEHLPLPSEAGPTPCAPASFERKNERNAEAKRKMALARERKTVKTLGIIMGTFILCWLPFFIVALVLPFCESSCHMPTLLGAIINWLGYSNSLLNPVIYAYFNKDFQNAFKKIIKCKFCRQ
Test [6] deals with Dopaminergic D2S (Homo sapiens, UniProt P14416). Nature of the test: CNS receptor binding assay. The following applies: read-out: % Inhibition of control specific binding.
Dopaminergic D2S, sequence (P14416 1-414 isoform P14416-2): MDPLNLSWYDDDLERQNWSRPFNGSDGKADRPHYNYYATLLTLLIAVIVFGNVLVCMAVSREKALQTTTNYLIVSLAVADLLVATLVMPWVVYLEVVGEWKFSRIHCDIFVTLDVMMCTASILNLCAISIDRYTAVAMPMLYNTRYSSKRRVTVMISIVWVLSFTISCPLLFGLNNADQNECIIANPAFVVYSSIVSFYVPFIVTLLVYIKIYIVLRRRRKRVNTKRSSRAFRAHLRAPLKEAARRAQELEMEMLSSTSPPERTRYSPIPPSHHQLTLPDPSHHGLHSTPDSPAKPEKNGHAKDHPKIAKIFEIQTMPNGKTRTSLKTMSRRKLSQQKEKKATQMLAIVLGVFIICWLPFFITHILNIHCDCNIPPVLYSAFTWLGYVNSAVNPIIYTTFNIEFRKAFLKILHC
For test [7], the target named is Histaminergic H1 (Homo sapiens, UniProt P35367). Nature of the test: CNS receptor binding assay. The following applies: read-out: % Inhibition of control specific binding.
Test [8] concerns the target Dopaminergic D1 (Homo sapiens, UniProt P21728). Nature of the test: CNS receptor binding assay. The following applies: read-out: % Inhibition of control specific binding.
Test [9] concerns the target T1, human progesterone receptor(PR) (Homo sapiens, UniProt P06401).
T1 construct: expressed in transfected cells; host or cells: HEK293T
T1 sequence (P06401 1-933): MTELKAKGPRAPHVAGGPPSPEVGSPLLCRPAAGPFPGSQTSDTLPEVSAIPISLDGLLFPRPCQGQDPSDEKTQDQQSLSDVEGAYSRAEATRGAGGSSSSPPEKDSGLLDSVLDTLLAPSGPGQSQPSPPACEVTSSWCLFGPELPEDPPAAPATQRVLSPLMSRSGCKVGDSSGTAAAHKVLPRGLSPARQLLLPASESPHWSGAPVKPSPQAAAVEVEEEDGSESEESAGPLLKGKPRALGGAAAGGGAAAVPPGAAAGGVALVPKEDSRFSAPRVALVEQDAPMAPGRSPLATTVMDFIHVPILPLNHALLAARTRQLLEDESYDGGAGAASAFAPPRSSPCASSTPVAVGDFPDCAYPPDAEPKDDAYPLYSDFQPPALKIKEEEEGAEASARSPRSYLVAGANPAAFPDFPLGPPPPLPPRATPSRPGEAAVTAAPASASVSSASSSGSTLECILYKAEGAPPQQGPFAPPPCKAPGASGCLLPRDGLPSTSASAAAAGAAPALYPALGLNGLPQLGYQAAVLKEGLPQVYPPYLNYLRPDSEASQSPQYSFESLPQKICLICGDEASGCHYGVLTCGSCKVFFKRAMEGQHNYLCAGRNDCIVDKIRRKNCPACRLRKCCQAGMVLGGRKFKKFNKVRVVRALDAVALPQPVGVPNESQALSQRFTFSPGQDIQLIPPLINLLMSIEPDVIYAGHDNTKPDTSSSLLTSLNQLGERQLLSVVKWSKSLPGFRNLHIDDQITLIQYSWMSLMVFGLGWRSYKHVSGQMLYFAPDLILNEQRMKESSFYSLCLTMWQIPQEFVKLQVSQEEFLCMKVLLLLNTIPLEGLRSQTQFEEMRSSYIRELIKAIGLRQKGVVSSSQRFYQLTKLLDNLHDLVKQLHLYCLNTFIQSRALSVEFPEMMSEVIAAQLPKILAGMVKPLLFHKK
In words: Progesterone receptor antagonist transactivation test (progesterone 1 nM) in transfected HEK293T cells. The test is classed as cell-based. The following applies: with progesterone 1 nM, increasing amounts, FIG. 2. The protocol: The main experimental setting used is the following: HEK293T cells were transiently transfected, using calcium phosphate precipitation technology, with expression vectors pSG5hPR (which permits expression of human progesterone receptor(PR)), pFC31-luc (contains the luciferase gene under the control of the MMTV promoter, which is in turn activated by binding of a progestin to progesterone receptor) and pcbetagal (which permits expression of betagalactosidase), and cultured during 24 hours with increasing amounts of various compositions: • 1. […] Test of progesterone receptor […] activity: transfected cells were cultured with progesterone (1 nM) and increasing amounts of RU486 (a well-known progesterone receptor antagonist) or 3-methoxy-pregnenolone. • With this setting, a compound with progesterone receptor antagonist activity competes with progesterone for the occupation of progesterone receptor and results in a progressive loss of transactivation activity when the amount of this compound is increased compared to progesterone.

In test [10] the test system is Noradrenergic α1. Nature of the test: CNS receptor binding assay. The following applies: 10 μM; [3H] prazosin; rat cerebral cortex.
The target in test [11] is Cannabinoid CB1 (Homo sapiens, UniProt P21554). Nature of the test: CNS receptor binding assay. The following applies: [3H] CP55940, Human recombinant (CHO cells), read-out: % Inhibition of control specific binding.
The subject of test [12] is GABA (non-selective). Nature of the test: CNS receptor binding assay. The following applies: 10 μM; [3H] GABA; rat cerebral cortex.
Test [13] has as its target Oppioid κ (Rattus norvegicus, UniProt P34975). Nature of the test: CNS receptor binding assay. The following applies: [3H] U 69593, rat recombinant (CHO cells), read-out: % Inhibition of control specific binding.
The target in test [14] is Muscarinic (Cholinergic) M1 (Homo sapiens, UniProt P11229). In words: CNS receptor binding assay. The following applies: [3H] pirenzepine, Human recombinant (CHO cells), read-out: % Inhibition of control specific binding.
For test [15], the target named is Serotoninergic 5-HT2B (Homo sapiens, UniProt P41595). In words: CNS receptor binding assay. The following applies: read-out: % Inhibition of control specific binding.
Test [16] concerns the target Muscarinic (Cholinergic) M3 (Homo sapiens, UniProt P20309). In words: CNS receptor binding assay. The following applies: [3H] 4-DAMP, Human recombinant (CHO cells), read-out: % Inhibition of control specific binding.
In test [17] the target is Noradrenergic β1 (Homo sapiens, UniProt P08588). Nature of the test: CNS receptor binding assay. The following applies: read-out: % Inhibition of control specific binding.
Test [18] addresses Serotoninergic 5-HT6 (Homo sapiens, UniProt P50406). Nature of the test: CNS receptor binding assay. The following applies: read-out: % Inhibition of control specific binding.
The target in test [19] is Oppioid μ (Homo sapiens, UniProt P35372). In words: CNS receptor binding assay. The following applies: [3H] DAMGO, Human recombinant (HEK-293 cells), read-out: % Inhibition of control specific binding.
Oppioid μ, sequence (P35372 whole entry): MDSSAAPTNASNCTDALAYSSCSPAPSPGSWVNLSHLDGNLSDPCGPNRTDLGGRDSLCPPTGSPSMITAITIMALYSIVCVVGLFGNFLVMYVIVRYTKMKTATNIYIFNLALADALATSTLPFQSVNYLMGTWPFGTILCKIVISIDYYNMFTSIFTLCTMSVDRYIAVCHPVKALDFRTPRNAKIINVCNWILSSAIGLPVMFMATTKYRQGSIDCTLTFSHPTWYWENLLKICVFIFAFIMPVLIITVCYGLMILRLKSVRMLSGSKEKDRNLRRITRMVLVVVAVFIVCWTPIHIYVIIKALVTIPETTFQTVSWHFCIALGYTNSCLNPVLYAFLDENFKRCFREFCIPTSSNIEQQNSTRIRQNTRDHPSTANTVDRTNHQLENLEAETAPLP

Muscarinic (Cholinergic) M3, sequence (P20309 whole entry): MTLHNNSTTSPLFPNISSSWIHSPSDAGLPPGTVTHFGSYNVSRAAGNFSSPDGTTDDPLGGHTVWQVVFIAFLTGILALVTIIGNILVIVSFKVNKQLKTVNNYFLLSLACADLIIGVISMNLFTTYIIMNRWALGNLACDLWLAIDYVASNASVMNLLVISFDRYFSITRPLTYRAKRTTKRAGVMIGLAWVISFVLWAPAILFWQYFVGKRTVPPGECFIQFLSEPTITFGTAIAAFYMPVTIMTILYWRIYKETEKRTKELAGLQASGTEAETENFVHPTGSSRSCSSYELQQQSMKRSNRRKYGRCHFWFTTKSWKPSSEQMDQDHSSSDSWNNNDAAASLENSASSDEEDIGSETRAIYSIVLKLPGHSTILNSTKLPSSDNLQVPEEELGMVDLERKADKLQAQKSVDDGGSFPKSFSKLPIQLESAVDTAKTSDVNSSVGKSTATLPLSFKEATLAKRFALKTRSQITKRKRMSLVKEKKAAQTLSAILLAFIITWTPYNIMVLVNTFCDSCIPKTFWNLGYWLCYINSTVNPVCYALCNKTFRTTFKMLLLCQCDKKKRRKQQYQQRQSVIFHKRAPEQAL
Serotoninergic 5-HT6, sequence (P50406 whole entry): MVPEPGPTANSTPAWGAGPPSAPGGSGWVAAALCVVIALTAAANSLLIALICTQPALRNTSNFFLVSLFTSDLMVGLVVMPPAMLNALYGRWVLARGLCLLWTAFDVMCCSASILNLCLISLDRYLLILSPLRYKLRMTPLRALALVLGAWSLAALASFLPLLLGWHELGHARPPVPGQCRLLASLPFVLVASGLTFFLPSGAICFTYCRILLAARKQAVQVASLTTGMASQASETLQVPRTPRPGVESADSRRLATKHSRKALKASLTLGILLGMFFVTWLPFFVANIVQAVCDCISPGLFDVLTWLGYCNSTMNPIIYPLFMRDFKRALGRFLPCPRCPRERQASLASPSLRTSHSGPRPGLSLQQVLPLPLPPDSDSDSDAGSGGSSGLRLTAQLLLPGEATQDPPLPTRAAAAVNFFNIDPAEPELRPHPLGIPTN
MAP2, sequence (P11137 whole entry): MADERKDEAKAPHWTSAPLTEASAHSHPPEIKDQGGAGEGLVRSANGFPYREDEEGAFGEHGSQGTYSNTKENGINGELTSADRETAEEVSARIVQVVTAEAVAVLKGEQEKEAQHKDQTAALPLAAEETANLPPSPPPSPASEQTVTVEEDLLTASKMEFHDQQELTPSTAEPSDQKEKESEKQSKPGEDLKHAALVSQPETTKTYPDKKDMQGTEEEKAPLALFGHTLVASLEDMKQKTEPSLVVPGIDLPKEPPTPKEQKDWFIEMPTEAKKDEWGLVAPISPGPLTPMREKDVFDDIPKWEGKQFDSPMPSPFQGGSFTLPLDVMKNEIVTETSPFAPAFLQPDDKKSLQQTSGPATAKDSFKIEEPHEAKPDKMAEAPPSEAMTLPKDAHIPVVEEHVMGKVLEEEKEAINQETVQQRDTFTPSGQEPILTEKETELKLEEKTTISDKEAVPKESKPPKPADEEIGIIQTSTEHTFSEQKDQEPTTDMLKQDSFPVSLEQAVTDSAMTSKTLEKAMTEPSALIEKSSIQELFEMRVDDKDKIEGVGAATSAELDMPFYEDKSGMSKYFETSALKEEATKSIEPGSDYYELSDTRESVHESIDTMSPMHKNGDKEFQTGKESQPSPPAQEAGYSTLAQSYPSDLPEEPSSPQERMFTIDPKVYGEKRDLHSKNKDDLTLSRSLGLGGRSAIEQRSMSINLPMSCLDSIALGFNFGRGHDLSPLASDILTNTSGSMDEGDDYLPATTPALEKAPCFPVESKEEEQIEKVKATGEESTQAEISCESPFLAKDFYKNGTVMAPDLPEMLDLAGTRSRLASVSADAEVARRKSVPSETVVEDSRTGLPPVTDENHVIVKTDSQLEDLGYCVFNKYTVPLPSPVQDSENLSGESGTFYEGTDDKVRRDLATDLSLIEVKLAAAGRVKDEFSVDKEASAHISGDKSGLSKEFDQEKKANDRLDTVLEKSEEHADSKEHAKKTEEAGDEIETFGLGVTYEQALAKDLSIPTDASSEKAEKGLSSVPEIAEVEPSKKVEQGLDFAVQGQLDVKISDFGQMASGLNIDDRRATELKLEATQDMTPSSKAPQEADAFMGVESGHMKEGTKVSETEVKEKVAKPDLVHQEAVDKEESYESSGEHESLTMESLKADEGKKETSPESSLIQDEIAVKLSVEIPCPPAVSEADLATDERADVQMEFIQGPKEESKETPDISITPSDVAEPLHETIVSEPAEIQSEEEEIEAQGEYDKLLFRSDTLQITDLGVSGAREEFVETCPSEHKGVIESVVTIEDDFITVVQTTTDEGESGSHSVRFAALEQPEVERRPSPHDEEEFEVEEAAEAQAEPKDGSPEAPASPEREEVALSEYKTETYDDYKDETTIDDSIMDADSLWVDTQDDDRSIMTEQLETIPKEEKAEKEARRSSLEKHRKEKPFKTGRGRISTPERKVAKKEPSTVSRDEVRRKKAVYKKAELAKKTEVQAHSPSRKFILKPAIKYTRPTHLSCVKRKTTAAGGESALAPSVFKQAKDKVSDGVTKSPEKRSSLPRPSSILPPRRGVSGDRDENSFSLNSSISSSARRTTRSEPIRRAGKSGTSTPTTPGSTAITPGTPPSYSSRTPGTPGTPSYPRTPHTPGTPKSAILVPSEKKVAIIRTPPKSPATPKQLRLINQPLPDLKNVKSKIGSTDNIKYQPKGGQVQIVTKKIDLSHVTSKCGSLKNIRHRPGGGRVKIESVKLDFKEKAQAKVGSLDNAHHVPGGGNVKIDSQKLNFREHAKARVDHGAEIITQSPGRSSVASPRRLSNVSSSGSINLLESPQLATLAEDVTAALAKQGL
Muscarinic (Cholinergic) M4, sequence (P08173 whole entry): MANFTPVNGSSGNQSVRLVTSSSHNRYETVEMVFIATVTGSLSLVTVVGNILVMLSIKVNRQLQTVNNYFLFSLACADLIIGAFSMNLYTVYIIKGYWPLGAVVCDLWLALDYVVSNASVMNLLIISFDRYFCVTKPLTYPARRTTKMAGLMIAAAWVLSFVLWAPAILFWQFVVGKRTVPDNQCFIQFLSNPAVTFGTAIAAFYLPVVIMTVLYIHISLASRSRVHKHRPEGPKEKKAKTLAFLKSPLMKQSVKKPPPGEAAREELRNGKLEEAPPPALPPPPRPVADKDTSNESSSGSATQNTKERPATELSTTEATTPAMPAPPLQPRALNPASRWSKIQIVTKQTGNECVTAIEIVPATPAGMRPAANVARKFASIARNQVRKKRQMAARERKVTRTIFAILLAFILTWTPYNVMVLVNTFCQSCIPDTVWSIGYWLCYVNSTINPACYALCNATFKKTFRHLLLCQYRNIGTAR
Dopaminergic D1, sequence (P21728 whole entry): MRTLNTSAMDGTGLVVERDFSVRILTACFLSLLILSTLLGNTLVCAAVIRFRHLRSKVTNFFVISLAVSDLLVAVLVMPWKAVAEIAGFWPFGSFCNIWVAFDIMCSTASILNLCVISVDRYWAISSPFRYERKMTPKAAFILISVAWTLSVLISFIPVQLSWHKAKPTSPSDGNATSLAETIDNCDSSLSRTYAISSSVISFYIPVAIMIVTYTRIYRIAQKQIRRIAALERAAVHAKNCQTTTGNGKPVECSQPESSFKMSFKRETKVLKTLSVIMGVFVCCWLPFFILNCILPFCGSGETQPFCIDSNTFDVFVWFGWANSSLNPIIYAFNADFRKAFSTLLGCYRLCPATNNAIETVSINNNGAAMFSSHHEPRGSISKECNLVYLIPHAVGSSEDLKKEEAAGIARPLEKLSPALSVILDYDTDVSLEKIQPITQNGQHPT

As a reminder, the inhibition is the drop in the measured response relative to a control, in per cent. Take `CO[C@H]1CC[C@@]2(C)C(=CC[C@H]3[C@@H]4CC[C@H](C(C)=O)[C@@]4(C)CC[C@@H]32)C1` [MAP4343, 3β-methoxy-pregna-5-ene-20-one]: the inhibition at 10 µM was 20% in test [1]; -3% in test [2]; 2% in [5]; 6% in [6]; 9% in test [7]; 2% in [8]. In addition, the inhibition at 10 µM in test [11] was 12%; in test [13], 19%; in [14], -3%; in [15] it was -4%; in test [16], 3%; in test [17], 1%. For the same compound, the inhibition at 10 µM in test [18] came out at 12%; in test [19] it was 0%. Also, the “Affinity (index of binding, percent of PREG)” value in [3] is given as 100% of PREG. Moreover, the “% Inhibition of control specific binding” value in test [4] is −10%; in [10] it was 4%; in test [12], 2%. The “progesterone receptor antagonist activity” value in test [9] was “weak progesterone receptor antagonist”.
